In patent US10722575B2, “Use of 1,3-diphenylprop-2-en-1-one derivatives for treating liver disorders” (GENFIT, priority 2009, dated 2020):

Experiments:
[1] = system: hApoE2 KI/PPARalpha KO mice; assay: hApoE2 KI/PPARalpha KO mice on Western diet, hepatic gene expression by quantitative RT-PCR; assay type: in vivo; details: 30 mg/kg/day by gavage, 6 weeks
Experimental: (§1) The compounds of the General Formula (I) were tested in vivo in a high fat diet mice model. Dyslipidemic “humanized” hApoE2 KI deficient for PPARalpha were fed a Western diet and treated during 6 weeks. The compounds of interest, including the Compound 29 of WO 2004/005233 at 30 mg/kg/day and the Compound 1 of WO 2007/147879 at 30 mg/kg/day were orally administrated by gavage. At the end of the protocol, animals were sacrificed, livers were harvested and the hepatic expression of relevant genes implicated in the liver inflammation and the fibrosis processes were evaluated by quantitative RT-PCR. In parallel, liver triglycerides contents were evaluated (Panels A-D). Statistical analysis was performed as indicated for FIG. 1.
(§2) Animals were fed a Western diet (20% saturated fat and 0.2% cholesterol, Harlan Teklad TD88137) during 2 weeks in the first study, that involved the daily administration of Cpd 29 (at 30 mg/kg/day by oral gavage), and during 6 weeks in the second study, that involved the daily administration of Compound 1 of WO 2007147879 (Cpd1, at 30 mg/kg/day by oral gavage). Control animals were treated with vehicle only (Carboxymethlycellulose 1%+Tween-80 0.1%). Animals had access to food and water ad libitum.
At the end of the studies, the animals were weighed and sacrificed under anesthesia. Blood was collected from the retro-orbital sinus; plasma was obtained by centrifugation (4 000 rpm, at 4° C. for 15 min) and subsequently frozen and stored at −20° C. Tissues and livers were isolated and snap-frozen in liquid nitrogen and stored at −80° C. for subsequent analysis (gene expression and biochemistry) or fixed in 4% paraformaldehyde for histology.
Total RNA was isolated from frozen livers using the NucleoSpin® 96 RNA kit (Macherey Nagel), according to the manufacturer's instructions. Reverse transcription was performed on 1 μg of total RNA by action of 1 μl of MMLV-RT enzyme (Invitrogen) during 1 hour at 37° C. in a total volume of 30 μl. The reaction conditions were 1× buffer (Invitrogen), 1.5 mM DTT (Invitrogen), 0.18 mM dNTPs (Promega), 200 ng pdN6 (Amersham), 30U RNase inhibitor (Promega). Quantitative PCR was then carried out using the MyiQ Single-Color Real-Time PCR Detection System (Biorad). Briefly PCR reactions were performed in 96 well plates on 5 μl of diluted reverse transcription mix using the iQ SYBR Green Supermix kit. The reaction conditions were: 25 μl of volume reaction, 3 mM of MgCl2, and 0.5 μl of each reverse and forward primer solutions (10 pMol), Tm of 60° C.
The quantity of fluorescence emitted is directly proportional to the quantity of complementary DNA present at the start of the reaction and amplified during the PCR. The relative levels of expression were determined using the standard curve for each transcript. The results were then normalized in regard to the signals obtained with the 36B4 control (a reference transcript for hepatic gene expression). The induction factor, i.e. the ratio between the relative signal induced by the compound according to the invention and the average of the values relating to the control group, was then calculated for each sample. The higher this factor, the more the compound promotes target gene expression. The final result is depicted as the average of the induction values in each experimental group.
(§3) In another study, the liver-specific anti-inflammatory and anti-fibrotic properties effects of Cpd 29 and Compound 1 of WO 2007/147879 (Cpd 1) were evaluated in the hApoE2 KI/PPARalpha KO mice that were fed a Western diet and daily treated with the selected compounds during 6 weeks.

[2] = system: hApoE2 KI/PPARalpha KO mice; assay: hApoE2 KI/PPARalpha KO mice on Western diet, hepatic lipid analysis (liver triglycerides); assay type: in vivo; details: 30 mg/kg/day by gavage, 6 weeks, FIG. 4D
Experimental: as §1
as §2, with “Control animals were treated with vehicle only (Carboxymethlycellulose 1%+Tween-80 0.1%). Animals had access to food and water ad libitum.” left out
as §3

## CSc1ccc(C(=O)CCc2cc(C)c(OC(C)(C)C(=O)O)c(C)c2)cc1 [Cpd 1, 2-[2,6-dimethyl-4-[3-[4-(methylthio)phenyl]-3-oxo-propyl]phenoxy]-2-methylpropanoic acid]
[1]; FIG. 4A
  liver expression of TNFα: inhibited
[1]; FIG. 4B
  liver expression of TGFβ: inhibited
[1]; FIG. 4C
  liver expression of collagen: inhibited
[2]
  triglycerides accumulation in the liver: prevented
